This note sets out measurements from patent US8912184B1, “Therapeutic and diagnostic methods” (Alzheimer's Institute of America, Inc., priority 2010, dated 2014).

The structures appear in SMILES notation. Where two headings read alike, the source gives them in different places.

This assay relates to HCT116 cells. The experiment in a line: Nicotinic Acid Rescue Cytotoxicity Assay, first method: cytotoxicity to HCT116 cells in presence and absence of 10 μM nicotinic acid. The settings on record: Homo sapiens, HCT-116, 72 h. The format is cell-based. Here is the method: Additionally, Nicotinic Acid (NA) rescue of cytotoxicity of Nampt inhibitors was assessed by two distinct methods. In the first method, Nampt1 inhibitor cytotoxicity was evaluated in the presence and absence of exogenous nicotinic acid (NA) at a fixed concentration. […] Twenty four hours after cells were plated, the media was removed and replaced with media containing 10 μM nicotinic acid. Compounds were then immediately added. Cell viability was then assessed at 72 h.
Using the first of the two assays described above, the 90 compounds shown in Table 5, below, were tested for cytotoxicity towards Naprt1-proficient HCT116 cells, and for the ability of NA to block the observed cytotoxicity (or “rescue” the cells from the cytotoxic activity of the tested compound). The compounds listed are referred to by a unique rescue analysis example number (i.e., R1, R2 . . . R90) that is used as a reference number in Table 4, in which the results of the cytotoxicity and rescue assays are presented.

The mark [1] stands for this setting: absence of nicotinic acid, read-out: HCT116 72 h cytotoxicity.
Where [2] appears, read: presence of 10 μM nicotinic acid, read-out: HCT116 72 h cytotoxicity with 10 μM Nicotinic Acid.

For `C#CCN(Cc1cc2c(=O)n(C)c(CN3CCN(C)CC3)nc2cc1Cl)c1ccc(C(=O)NCc2cccnc2)cc1` [Example R1], the IC50 reads like this: under setting [1], 0.0007 µM; under setting [2], above 10 µM.
`C#CCN(Cc1cc2c(=O)n(C)c(CN3CCN(CCN)CC3)nc2cc1Cl)c1ccc(C(=O)NCc2cccnc2)cc1` [Example R2, 4-{[(2-{[4-(2-Aminoethyl)piperazin-1-yl]methyl}-7-chloro-3-methyl-4-oxo-3,4-dihydroquinazolin-6-yl)methyl](prop-2-yn-1-yl)amino}-N-(pyridin-3-ylmethyl)benzamide]: the IC50 under setting [1] is 0.0183 µM and the IC50 under setting [2] is above 50 µM.
For `O=C(/C=C/c1cccnc1)NCCCCC1CCN(C(=O)c2ccccc2)CC1` [Example R3, (2E)-N-[4-(1-Benzoylpiperidin-4-yl)butyl]-3-(pyridin-3-yl)prop-2-enamide], in that order: 0.0014 µM and above 10 µM.
For `C#CCN(Cc1cc2c(=O)n(C)c(CN3CCN(C)CC3)nc2cc1Cl)c1ccc(C(=O)NCc2ccccn2)cc1` [Example R4, 4-[({7-Chloro-3-methyl-2-[(4-methylpiperazin-1-yl)methyl]-4-oxo-3,4-dihydroquinazolin-6-yl}methyl)(prop-2-yn-1-yl)amino]-N-(pyridin-2-ylmethyl)benzamide], the IC50 is, setting by setting: under setting [1], 0.276 µM; under setting [2], above 10 µM.
Taken in the same sequence, the figures for `N#C/N=C(/NCCCCCCOc1ccc(Cl)cc1)Nc1ccncc1` [Example R5, 1-[6-(4-Chlorophenoxy)hexyl]-2-cyano-3-pyridin-4-ylguanidine] were 0.0016 µM and above 10 µM.
For `O=C(NCc1cccnc1)c1ccc(NC(=O)c2ccccc2)cc1` [Example R6, 4-[(Phenylcarbonyl)amino]-N-(pyridin-3-ylmethyl)benzamide], in that order: 1.69 µM and above 10 µM.
Taken in the same sequence, the figures for `O=C(NCc1cccnc1)c1ccc(NNc2ccc(C(=O)NCc3cccnc3)cc2)cc1` [Example R7, 4,4′-Hydrazine-1,2-diylbis[N-(pyridin-3-ylmethyl)benzamide]] were 0.0088 µM and 22 µM.
For `O=C(NCc1cccnc1)c1ccc(NCc2ccccc2OC(F)(F)F)cc1` [Example R8, N-(Pyridin-3-ylmethyl)-4-{[2-(trifluoromethoxy)benzyl]amino}benzamide], the IC50 is, setting by setting: under setting [1], 3.13 µM; under setting [2], above 10 µM.
Take `C#CCN(Cc1ccccc1-c1ccccc1)c1ccc(C(=O)NCc2cccnc2)cc1` [Example R9, 4-[(Biphenyl-2-ylmethyl)(prop-2-yn-1-yl)amino]-N-(pyridin-3-ylmethyl)benzamide]: the IC50 came out at 0.0415 µM under setting [1] and 12 µM under setting [2].
Regarding `C#CCN(Cc1ccccc1C(F)(F)F)c1ccc(C(=O)NCc2cccnc2)cc1` [Example R10, 4-{Prop-2-yn-1-yl[2-(trifluoromethyl)benzyl]amino}-N-(pyridin-3-ylmethyl)benzamide], the IC50 runs as follows: under setting [1], 1.11 µM; under setting [2], above 5 µM.
Regarding `O=C(Nc1ccc(C(=O)NCc2cccnc2)cc1)Nc1ccccc1-c1ccccc1` [Example R11, 4-[(Biphenyl-2-ylcarbamoyl)amino]-N-(pyridin-3-ylmethyl)benzamide], the IC50 reads like this: under setting [1], 0.424 µM; under setting [2], above 50 µM.
For `O=C(Nc1ccc(C(=O)NCc2cccnc2)cc1)Nc1ccc(Cl)c(Cl)c1` [Example R12, 4-{[(3,4-Dichlorophenyl)carbamoyl]amino}-N-(pyridin-3-ylmethyl)benzamide], in that order: 9.64 µM and 24.8 µM.
Regarding `O=C(NCc1cccnc1)c1ccc(NC(=S)Nc2ccccc2Br)cc1` [Example R13, 4-{[(2-Bromophenyl)carbamothioyl]amino}-N-(pyridin-3-ylmethyl)benzamide], the IC50 is 1.61 µM under setting [1] and above 50 µM under setting [2].
For `O=C(Nc1ccc(C(=O)NCc2cccnc2)cc1)Nc1cc(C(F)(F)F)cc(C(F)(F)F)c1` [Example R14, 4-({[3,5-Bis(trifluoromethyl)phenyl]carbamoyl}amino)-N-(pyridin-3-ylmethyl)benzamide], in that order: 7.39 µM and 21.5 µM.
